The source of these data is patent US9670227B2, “Thienopyrimidine derivatives, a process for their preparation and pharmaceutical compositions containing them” (LES LABORATOIRES SERVIER, priority 2013, dated 2017).

One may read the IC50 as the point on the concentration scale where inhibition reaches its midpoint.

The target in assay [1] is Mcl-1 protein (UniProtKB primary accession number: Q07820) (Homo sapiens, UniProt Q07820). Kind of assay: Inhibition of Mcl-1 by fluorescence polarisation, Method 1. It is filed as binding. To be noted: fluorescence polarisation test; Method 2 values are underlined in the patent (underlining not visible here); read-out: IC50 (M) Mcl-1 FP. The essentials: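 Fluorescence polarisation competition with an 11-point compound dilution series (final DMSO 5%). Mcl-1 protein at 5 nM and fluorescein-labelled ligand at 1 nM (final) in 10 mM HEPES, 150 mM NaCl, 0.05% Tween 20, pH 7.4.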

The test system of assay [2] is H929 multiple myeloma tumour line. Kind of assay: In vitro cytotoxicity, Microculture Tetrazolium Assay. In kind it is cell-based. To be noted: Homo sapiens, NCI-H929, 48 h, H929 cells, 48 hours exposure, MTT; read-out: IC50 (μM) MTT H929. On the procedure:
The cytotoxicity studies were carried out on the H929 multiple myeloma tumour line.
The cells are distributed onto microplates and exposed to the test compounds for 48 hours.

Sequence of Mcl-1 protein (Q07820 whole entry): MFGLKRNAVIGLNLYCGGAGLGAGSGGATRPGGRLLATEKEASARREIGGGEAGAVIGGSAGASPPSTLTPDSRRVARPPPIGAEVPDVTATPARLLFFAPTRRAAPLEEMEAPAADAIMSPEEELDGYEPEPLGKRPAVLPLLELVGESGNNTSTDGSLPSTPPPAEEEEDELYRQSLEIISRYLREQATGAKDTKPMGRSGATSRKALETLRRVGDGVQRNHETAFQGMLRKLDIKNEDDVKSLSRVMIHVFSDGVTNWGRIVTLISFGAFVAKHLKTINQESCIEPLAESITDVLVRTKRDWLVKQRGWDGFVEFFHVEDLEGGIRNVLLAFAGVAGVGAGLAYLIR

With `Cc1c(-c2c(-c3ccco3)sc3ncnc(OC(Cc4ccccc4OCc4ccncc4)C(=O)O)c23)ccc(OCCN2CCN(C)CC2)c1Cl` [Example 258, (2R)-2-{[(5Sa)-5-{3-chloro-2-methyl-4-[2-(4-methylpiperazin-1-yl)ethoxy]phenyl}-6-(furan-2-yl)thieno[2,3-d]pyrimidin-4-yl]oxy}-3-[2-(pyridin-4-ylmethoxy)phenyl]propanoic acid], the IC50 in assay [1] was 6.6e-09 M; in assay [2], 0.069 µM.
In the same order, the values of `Cc1c(-c2c(-c3ccco3)sc3ncnc(OC(Cc4ccccc4OCc4ccncn4)C(=O)O)c23)ccc(OCCN2CCN(C)CC2)c1Cl` [Example 259, (2R)-2-{[(5Sa)-5-{3-chloro-2-methyl-4-[2-(4-methylpiperazin-1-yl)ethoxy]phenyl}-6-(furan-2-yl)thieno[2,3-d]pyrimidin-4-yl]oxy}-3-[2-(pyrimidin-4-ylmethoxy)phenyl]propanoic acid] are 5.2e-09 M and 0.07 µM.
As for `Cc1c(-c2c(-c3ccco3)sc3ncnc(OC(Cc4ccccc4OCc4ccnn4C)C(=O)O)c23)ccc(OCCN2CCN(C)CC2)c1Cl` [Example 260, (2R)-2-{[(5Sa)-5-{3-chloro-2-methyl-4-[2-(4-methylpiperazin-1-yl)ethoxy]phenyl}-6-(furan-2-yl)thieno[2,3-d]pyrimidin-4-yl]oxy}-3-{2-[(1-methyl-1H-pyrazol-5-yl)methoxy]phenyl}propanoic acid], the IC50 in assay [1] was 6.7e-09 M; in assay [2] it was 0.033 µM.
For `Cc1c(-c2c(-c3ccco3)sc3ncnc(OC(Cc4ccccc4OCc4ccnn4C(C)C)C(=O)O)c23)ccc(OCCN2CCN(C)CC2)c1Cl` [Example 261, (2R)-2-{[(5Sa)-5-{3-chloro-2-methyl-4-[2-(4-methylpiperazin-1-yl)ethoxy]phenyl}-6-(furan-2-yl)thieno[2,3-d]pyrimidin-4-yl]oxy}-3-(2-{[1-(propan-2-yl)-1H-pyrazol-5-yl]methoxy}phenyl)propanoic acid], the IC50 in assay [1] worked out at 1.7e-09 M; in assay [2] it was 0.018 µM.
The corresponding values for `Cc1c(-c2c(-c3ccco3)sc3ncnc(OC(Cc4ccccc4OCc4ccnn4C4CCCC4)C(=O)O)c23)ccc(OCCN2CCN(C)CC2)c1Cl` [Example 262, (2R)-2-{[(5Sa)-5-{3-chloro-2-methyl-4-[2-(4-methylpiperazin-1-yl)ethoxy]phenyl}-6-(furan-2-yl)thieno[2,3-d]pyrimidin-4-yl]oxy}-3-{2-[(1-cyclopentyl-1H-pyrazol-5-yl)methoxy]phenyl}propanoic acid] are 3.9e-09 M and 0.023 µM.
For `Cc1c(-c2c(-c3ccco3)sc3ncnc(OC(Cc4ccccc4OCc4ccnn4-c4ccccc4)C(=O)O)c23)ccc(OCCN2CCN(C)CC2)c1Cl` [Example 263, (2R)-2-{[(5Sa)-5-{3-chloro-2-methyl-4-[2-(4-methylpiperazin-1-yl)ethoxy]phenyl}-6-(furan-2-yl)thieno[2,3-d]pyrimidin-4-yl]oxy}-3-{2-[(1-phenyl-1H-pyrazol-5-yl)methoxy]phenyl}propanoic acid], the IC50 in assay [1] amounted to 2e-09 M; in assay [2] it was 0.126 µM.
In the same order, the values of `CCn1nccc1COc1ccccc1CC(Oc1ncnc2sc(-c3ccco3)c(-c3ccc(OCCN4CCN(C)CC4)c(Cl)c3C)c12)C(=O)O` [Example 264, (2R)-2-{[(5Sa)-5-{3-chloro-2-methyl-4-[2-(4-methylpiperazin-1-yl)ethoxy]phenyl}-6-(furan-2-yl)thieno[2,3-d]pyrimidin-4-yl]oxy}-3-{2-[(1-ethyl-1H-pyrazol-5-yl)methoxy]phenyl}propanoic acid] are 9.1e-09 M and 0.034 µM.
For `Cc1c(-c2c(-c3ccco3)sc3ncnc(OC(Cc4ccccc4OCC4CCO4)C(=O)O)c23)ccc(OCCN2CCN(C)CC2)c1Cl` [Example 266, (2R)-2-{[(5Sa)-5-{3-chloro-2-methyl-4-[2-(4-methylpiperazin-1-yl)ethoxy]phenyl}-6-(furan-2-yl)thieno[2,3-d]pyrimidin-4-yl]oxy}-3-[2-(oxetan-2-ylmethoxy)phenyl]propanoic acid], the 50% inhibitory concentration (IC50) in assay [1] is 5.7e-09 M; in assay [2] it was 0.093 µM.
